According to ChEMBL document CHEMBL4706588, “Rational design and biological evaluation of a new class of thiazolopyridyl tetrahydroacridines as cholinesterase and GSK-3 dual inhibitors for Alzheimer's disease” (Eur J Med Chem, 2020):
Activity calls are given as the source filed them. No cut-off for these calls is given here.

Key:
Acetylcholinesterase = Acetylcholinesterase (Homo sapiens, UniProt P22303); assay: Inhibition of human AChE using acetylthiocholine iodide as substrate preincubated with enzyme for 1 min followed by substrate addition and measured after 10 mins by Ellman's method
Chain of Acetylcholinesterase (P22303 whole entry): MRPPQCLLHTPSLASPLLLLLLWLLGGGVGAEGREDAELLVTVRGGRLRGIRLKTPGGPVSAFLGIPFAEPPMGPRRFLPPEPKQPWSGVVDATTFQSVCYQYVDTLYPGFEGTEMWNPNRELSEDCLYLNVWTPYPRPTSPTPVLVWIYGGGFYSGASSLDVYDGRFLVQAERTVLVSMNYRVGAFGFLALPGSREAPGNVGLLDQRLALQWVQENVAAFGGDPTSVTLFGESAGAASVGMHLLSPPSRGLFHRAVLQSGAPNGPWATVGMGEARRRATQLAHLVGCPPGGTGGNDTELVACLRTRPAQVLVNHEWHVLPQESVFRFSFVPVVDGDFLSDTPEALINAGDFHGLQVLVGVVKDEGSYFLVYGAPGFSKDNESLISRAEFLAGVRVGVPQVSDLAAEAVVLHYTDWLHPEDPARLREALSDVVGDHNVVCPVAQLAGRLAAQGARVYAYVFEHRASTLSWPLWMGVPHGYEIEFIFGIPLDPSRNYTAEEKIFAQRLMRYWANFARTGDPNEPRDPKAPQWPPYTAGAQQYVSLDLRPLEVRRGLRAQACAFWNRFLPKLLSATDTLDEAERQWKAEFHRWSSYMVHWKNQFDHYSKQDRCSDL

[1] = biological target: Glycogen synthase kinase-3 beta (Homo sapiens, UniProt P49841); assay: biochemical
Chain of Glycogen synthase kinase-3 beta (P49841 whole entry): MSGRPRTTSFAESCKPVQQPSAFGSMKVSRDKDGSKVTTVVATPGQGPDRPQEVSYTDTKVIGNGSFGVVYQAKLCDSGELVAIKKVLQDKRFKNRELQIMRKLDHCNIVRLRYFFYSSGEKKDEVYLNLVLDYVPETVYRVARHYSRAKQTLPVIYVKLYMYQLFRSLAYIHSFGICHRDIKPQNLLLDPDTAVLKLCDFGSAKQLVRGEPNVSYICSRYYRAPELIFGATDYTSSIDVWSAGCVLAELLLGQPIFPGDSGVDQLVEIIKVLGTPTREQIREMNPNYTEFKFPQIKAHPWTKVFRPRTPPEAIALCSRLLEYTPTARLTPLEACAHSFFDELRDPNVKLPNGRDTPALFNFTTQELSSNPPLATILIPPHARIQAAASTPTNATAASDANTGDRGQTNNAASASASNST
Description: Inhibition of recombinant human N-terminal His6-tagged GSK-3beta H350L mutant expressed in baculovirus infected Sf21 cells using GSM as substrate incubated for 30 mins in presence of ATP by kinase-glo luminescence assay

Cholinesterase = Cholinesterase (Homo sapiens, UniProt P06276); assay: Inhibition of human BuChE using butyrylthiocholine iodide as substrate preincubated with enzyme for 1 min followed by substrate addition and measured after 10 mins by Ellman's method
Chain of Cholinesterase (P06276 whole entry): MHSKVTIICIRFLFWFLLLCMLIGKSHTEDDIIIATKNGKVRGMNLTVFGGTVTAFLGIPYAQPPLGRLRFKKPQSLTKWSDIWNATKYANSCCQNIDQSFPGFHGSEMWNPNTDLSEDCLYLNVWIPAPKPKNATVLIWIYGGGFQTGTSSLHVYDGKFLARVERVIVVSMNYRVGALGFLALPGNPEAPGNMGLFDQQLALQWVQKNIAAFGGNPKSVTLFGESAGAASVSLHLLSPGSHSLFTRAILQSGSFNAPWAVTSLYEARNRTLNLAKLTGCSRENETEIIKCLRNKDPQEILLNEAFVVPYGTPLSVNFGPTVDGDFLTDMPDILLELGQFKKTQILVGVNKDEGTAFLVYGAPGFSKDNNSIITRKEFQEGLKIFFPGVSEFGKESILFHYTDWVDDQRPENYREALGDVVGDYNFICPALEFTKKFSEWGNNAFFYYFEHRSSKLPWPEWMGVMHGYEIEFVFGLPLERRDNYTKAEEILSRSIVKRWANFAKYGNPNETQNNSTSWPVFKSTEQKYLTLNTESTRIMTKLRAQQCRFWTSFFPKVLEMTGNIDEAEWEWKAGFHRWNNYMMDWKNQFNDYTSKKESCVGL

in vitro = conditions: PAMPA
Description: Effective permeability of compound at 100 ug/ml incubated for 20 hrs by PAMPA-BBB assay

[2] = Effect on swimming speed in ICR mouse model of scopolamine-induced memory impairment at 15 mg/kg, po administered 30 mins prior to scopolamine injection by Morris water maze test; assay type: ADME, organism-based; conditions: in vivo, 0.5 h
[3] = Effect on cell morphology in LPS-treated mouse BV-2 cells at 5 uM pretreated for 1 hr followed by incubation with LPS for 24 hrs by fluorescence microscopic analysis; assay type: ADME; conditions: bv-2, 25 h
BV-2 = assay: Inhibition of LPS-induced ROS production in mouse BV-2 cells at 5 uM incubated for 1 hr followed by LPS stimulation and measured after 24 hrs by DCFH-DA staining based inverted fluorescence microscopic analysis; assay type: functional, cell-based; conditions: time 25.0 hrs
Mus musculus = assay: Cognitive enhancing effect in ICR mouse model of scopolamine-induced memory impairment assessed as improvement in trajectories to platform at 15 mg/kg, po administered 30 mins prior to scopolamine injection by Morris water maze test; assay type: functional, organism-based

Compound	IC50 (Acetylcholinesterase) [µM]	IC50 [1] [µM]	IC50 (Cholinesterase) [µM]	Papp at 20 h, 100 ug/ml (in vitro) [nm/s]	Activity [2]	Activity [3]	inhibition (BV-2)	Activity (Mus musculus)
CNC(=O)c1sc(-c2ccnc(NC(=O)CNCCNc3c4c(nc5cc(Cl)ccc35)CCCC4)c2)nc1OCC1CC1	0.0405	0.0626	0.613	–	–	–	–	–
CNC(=O)c1sc(-c2ccnc(NC(=O)C3CC3)c2)nc1OCCc1cn(CCNc2c3c(nc4ccc(OC)cc24)CCCC3)nn1	> 1	0.0371	0.0375	–	–	–	–	–
CNC(=O)c1sc(-c2ccnc(NC(=O)C3CC3)c2)nc1OCCOCc1cn(-c2c3c(nc4ccccc24)CCCC3)nn1	> 1	0.0839	0.2	–	–	–	–	–
CNC(=O)c1sc(-c2ccnc(NC(=O)CNCCCCNc3c4c(nc5ccccc35)CCCC4)c2)nc1OCC1CC1	0.0231	0.0416	0.0483	71	–	–	–	–
CC(=O)Nc1cc(-c2nc(OCC3CC3)c(C(=O)NCCCNc3c4c(nc5ccccc35)CCCC4)s2)ccn1	0.394	0.0928	0.173	–	–	–	–	–
COc1nc(-c2ccnc(NC(=O)C3CC3)c2)sc1C(N)=O	> 1	0.0172	> 1	–	–	–	–	–
CNC(=O)c1sc(-c2ccnc(NC(=O)C3CC3)c2)nc1OCCOCc1cn(CCNc2c3c(nc4cc(Cl)ccc24)CCCC3)nn1	0.0121	0.0263	> 1	42	–	–	–	–
CNC(=O)c1sc(-c2ccnc(NC(=O)CNCCNc3c4c(nc5ccccc35)CCCC4)c2)nc1OC(C)C	0.237	0.0716	0.33	–	–	–	–	–
CNC(=O)c1sc(-c2ccnc(NC(=O)C3CC3)c2)nc1OCCc1cn(CCNc2c3c(nc4ccccc24)CCCC3)nn1	0.269	0.072	0.3	–	–	–	–	–
CCn1cc(C(=O)O)c(=O)c2ccc(-n3cccc3)cc21	–	–	–	25	–	–	–	–
O=C(NCCCNc1c2c(nc3ccccc13)CCCC2)c1sc(-c2ccnc(NC(=O)C3CC3)c2)nc1OCC1CC1	0.312	0.104	0.216	–	–	–	–	–
O=C(NCCCNc1c2c(nc3ccccc13)CCCC2)c1sc(-c2ccnc(NC(=O)C3CCC3)c2)nc1OCC1CC1	0.295	0.0807	0.0307	–	–	–	–	–
CCNC(=O)c1sc(-c2ccnc(NC(=O)CNCCNc3c4c(nc5ccccc35)CCCC4)c2)nc1OCC1CC1	0.0452	0.114	0.512	–	–	–	–	–
CNC(=O)c1sc(-c2ccnc(NC(=O)CNCCNc3c4c(nc5ccccc35)CCCC4)c2)nc1OCC(C)(C)C	0.103	0.165	0.236	–	–	–	–	–
NC(=O)c1sc(-c2ccnc(NC(=O)CNCCNc3c4c(nc5ccccc35)CCCC4)c2)nc1OCC1CC1	0.0008	0.0426	0.19	49	–	–	–	–
CNC(=O)c1sc(-c2ccnc(NC(=O)C3CC3)c2)nc1OCCc1cn(CCNc2c3c(nc4cc(Cl)ccc24)CCCC3)nn1	0.0387	0.0467	> 1	47	–	–	–	–
CCCNC(=O)c1sc(-c2ccnc(NC(=O)CNCCNc3c4c(nc5ccccc35)CCCC4)c2)nc1OCC1CC1	0.0049	0.239	0.0895	–	–	–	–	–
CNC(=O)c1sc(-c2ccnc(NC(=O)C3CC3)c2)nc1OCCCc1cn(CCNc2c3c(nc4ccccc24)CCCC3)nn1	0.168	0.0643	0.17	–	–	–	–	–
CNC(=O)c1sc(-c2ccnc(NC(=O)C3CC3)c2)nc1OCCOCc1cn(CCNc2c3c(nc4ccc(OC)cc24)CCCC3)nn1	> 1	0.031	> 1	–	–	–	–	–
NC(=O)c1sc(-c2ccnc(NC(=O)C3CC3)c2)nc1OCCc1cn(-c2c3c(nc4ccccc24)CCCC3)nn1	> 1	0.0065	> 1	–	–	–	–	–
CNC(=O)c1sc(-c2ccnc(NC(=O)CNCCNc3c4c(nc5ccc(OC)cc35)CCCC4)c2)nc1OCC1CC1	0.0307	0.0393	> 1	57	–	–	–	–
CNC(=O)c1sc(-c2ccnc(NC(=O)C3CC3)c2)nc1OCCOCc1cn(CCNc2c3c(nc4ccccc24)CCCC3)nn1	0.0447	0.0208	0.36	46	Non-Toxic	Non-Toxic	Active	Active
CNC(=O)c1sc(-c2ccnc(NC(=O)CNCCNc3c4c(nc5ccccc35)CCCC4)c2)nc1OCC1CCC1	0.155	0.13	0.277	–	–	–	–	–
CNC(=O)c1sc(-c2ccnc(NC(=O)C3CC3)c2)nc1OCCCc1cn(CCNc2c3c(nc4ccc(OC)cc24)CCCC3)nn1	> 1	0.0146	> 1	–	–	–	–	–
CNC(=O)c1sc(-c2ccnc(NC(=O)CNCCCCCCNc3c4c(nc5ccccc35)CCCC4)c2)nc1OCC1CC1	0.0219	0.062	0.0082	–	–	–	–	–
CNC(=O)c1sc(-c2ccnc(NC(=O)C3CC3)c2)nc1OCCc1cn(-c2c3c(nc4ccccc24)CCCC3)nn1	> 1	0.0517	0.6	–	–	–	–	–
CNC(=O)c1sc(-c2ccnc(NC(=O)CNCCNc3c4c(nc5ccccc35)CCCC4)c2)nc1OCC(C)C	0.0492	0.132	0.619	–	–	–	–	–
CNC(=O)c1sc(-c2ccnc(NC(=O)CNCCCCCCCCNc3c4c(nc5ccccc35)CCCC4)c2)nc1OCC1CC1	0.0152	0.0622	0.0032	–	–	–	–	–
CCn1cc(C(=O)O)c(=O)c2cc(F)c(N3CCNC(C)C3)c(F)c21 (stereo unspecified) [LOMEFLOXACIN]	–	–	–	9	–	–	–	–
CNC(=O)c1sc(-c2ccnc(NC(=O)CNCCNc3c4c(nc5ccccc35)CCCC4)c2)nc1OC	0.0974	0.0411	0.262	–	–	–	–	–
